Test results as given in patent US10787432B2, “N-[(pyridyloxy)propanyl]benzamides” (Boehringer Ingelheim International GmbH, priority 2016, dated 2020).

Biological target: T1, human Orexin 1 receptor (Homo sapiens, UniProt O43613)
T1 construct: stably expressing the full-length human Orexin 1 receptor; expressed in transfected cells; host or cells: CHO-K1 (CHO-K1/hOX1), co-expressing aequorin
T1 sequence (O43613 1-425): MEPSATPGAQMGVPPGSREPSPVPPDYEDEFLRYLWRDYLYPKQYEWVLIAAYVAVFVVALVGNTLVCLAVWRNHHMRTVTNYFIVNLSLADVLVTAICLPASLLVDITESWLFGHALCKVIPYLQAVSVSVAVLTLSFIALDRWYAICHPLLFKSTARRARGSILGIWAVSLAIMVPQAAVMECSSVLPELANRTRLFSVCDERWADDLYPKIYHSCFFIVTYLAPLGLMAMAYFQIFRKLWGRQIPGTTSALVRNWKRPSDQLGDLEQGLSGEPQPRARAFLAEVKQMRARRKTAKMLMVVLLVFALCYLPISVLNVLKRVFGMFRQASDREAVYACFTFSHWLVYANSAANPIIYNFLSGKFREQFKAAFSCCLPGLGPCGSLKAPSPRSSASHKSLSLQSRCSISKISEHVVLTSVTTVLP
Test: Assay A: In vitro testing of OX1R potency: OX1R IP1 (HTRF, CHO-K1/hOX1 cells, Orexin A as agonist)
Format: cell-based
Details: OX1R Kb at 0.5 nM Orexin A

Row | Structure (SMILES) | OX2R Kb/OX1R Kb
1 | CCN(C(=O)c1cccc(C)c1-c1nnc(C)o1)[C@@H](C)COc1ccc(Cl)cn1 [Example 39] | 93
2 | CCN(C(=O)c1ccc(C#N)cc1-n1nccn1)[C@@H](C)COc1ccc(C(F)(F)F)cn1 [Example 103] | 273
3 | CCN(C(=O)c1cccc(F)c1-n1nccn1)[C@@H](C)COc1ccc(Cl)cn1 [Example 114] | 92
4 | CCN(C(=O)c1cc(F)ccc1-n1cccn1)[C@@H](C)COc1ncc(C(F)(F)F)cc1F [Example 124] | 278
5 | CCN(C(=O)c1cccc(F)c1-c1nnc(C)o1)[C@@H](C)COc1ccc(Cl)cn1 [Example 36] | 139
6 | CCN(C(=O)c1cc(F)cc(F)c1-n1nccn1)[C@@H](C)COc1ccc(OC(F)(F)F)cn1 [Example 126] | 71
7 | CCN(C(=O)c1cc(C#N)ccc1-n1nccn1)[C@@H](C)COc1ccc(C(F)(F)F)cn1 [Example 95] | 71
8 | CCN(C(=O)c1cc(F)cc(F)c1-n1nccn1)[C@@H](C)COc1ccc(Cl)cn1 [Example 32] | 106
9 | CCN(C(=O)c1cc(F)cc(F)c1-n1nccn1)[C@@H](C)COc1ncc(C(F)(F)F)cc1F [Example 54] | 277

Same assay, conditions: OX1R Kb at 50 nM Orexin A

Row | Structure (SMILES) | OX2R Kb/OX1R Kb
10 | CCN(C(=O)c1cccc(C)c1-c1nnc(C)o1)[C@@H](C)COc1ccc(Cl)cn1 [Example 39] | 152
11 | CCN(C(=O)c1cccc(F)c1-n1nccn1)[C@@H](C)COc1ccc(Cl)cn1 [Example 114] | 98
12 | CCN(C(=O)c1cc(F)cc(F)c1-n1nccn1)[C@@H](C)COc1ccc(OC(F)(F)F)cn1 [Example 126] | 66
13 | CCN(C(=O)c1cc(C#N)ccc1-n1nccn1)[C@@H](C)COc1ccc(C(F)(F)F)cn1 [Example 95] | 74
14 | CCN(C(=O)c1cc(F)cc(F)c1-n1nccn1)[C@@H](C)COc1ccc(Cl)cn1 [Example 32] | 143
15 | CCN(C(=O)c1cc(F)cc(F)c1-n1nccn1)[C@@H](C)COc1ncc(C(F)(F)F)cc1F [Example 54] | 415

Same assay, conditions: Orexin A 0.5 nM; read-out: OX1R Kb (Orexin A concentration used)

Row | Structure (SMILES) | Kb [nM]
16 | CCN(C(=O)c1cccc(C)c1-c1nnc(C)o1)[C@@H](C)COc1ccc(Cl)cn1 [Example 39] | 0.88
17 | CCN(C(=O)c1ccc(C#N)cc1-n1nccn1)[C@@H](C)COc1ccc(C(F)(F)F)cn1 [Example 103] | 4.28
18 | CCN(C(=O)c1cccc(F)c1-n1nccn1)[C@@H](C)COc1ccc(Cl)cn1 [Example 114] | 0.59
19 | CCN(C(=O)c1cc(F)ccc1-n1cccn1)[C@@H](C)COc1ncc(C(F)(F)F)cc1F [Example 124] | 3.8
20 | CCN(C(=O)c1cccc(F)c1-c1nnc(C)o1)[C@@H](C)COc1ccc(Cl)cn1 [Example 36] | 3.9
21 | CCN(C(=O)c1cc(F)cc(F)c1-n1nccn1)[C@@H](C)COc1ccc(OC(F)(F)F)cn1 [Example 126] | 0.58
22 | CCN(C(=O)c1cc(C#N)ccc1-n1nccn1)[C@@H](C)COc1ccc(C(F)(F)F)cn1 [Example 95] | 0.52
23 | CCN(C(=O)c1cc(F)cc(F)c1-n1nccn1)[C@@H](C)COc1ccc(Cl)cn1 [Example 32] | 1.1
24 | CCN(C(=O)c1cc(F)cc(F)c1-n1nccn1)[C@@H](C)COc1ncc(C(F)(F)F)cc1F [Example 54] | 0.99

Same assay, conditions: Orexin A 50 nM; read-out: OX1R Kb (Orexin A concentration used)

Row | Structure (SMILES) | Kb [nM]
25 | CCN(C(=O)c1cccc(C)c1-c1nnc(C)o1)[C@@H](C)COc1ccc(Cl)cn1 [Example 39] | 0.54
26 | CCN(C(=O)c1cccc(F)c1-n1nccn1)[C@@H](C)COc1ccc(Cl)cn1 [Example 114] | 0.55
27 | CCN(C(=O)c1cc(F)cc(F)c1-n1nccn1)[C@@H](C)COc1ccc(OC(F)(F)F)cn1 [Example 126] | 0.62
28 | CCN(C(=O)c1cc(C#N)ccc1-n1nccn1)[C@@H](C)COc1ccc(C(F)(F)F)cn1 [Example 95] | 0.5
29 | CCN(C(=O)c1cc(F)cc(F)c1-n1nccn1)[C@@H](C)COc1ccc(Cl)cn1 [Example 32] | 0.82
30 | CCN(C(=O)c1cc(F)cc(F)c1-n1nccn1)[C@@H](C)COc1ncc(C(F)(F)F)cc1F [Example 54] | 0.66

Biological target: T2, human orexin 2 receptor (Homo sapiens, UniProt O43614)
T2 construct: stably expressing the full-length human orexin 2 receptor; expressed in transfected cells; host or cells: CHO-K1 (CHO-K1/hOX2), co-expressing aequorin
T2 sequence (O43614 1-444): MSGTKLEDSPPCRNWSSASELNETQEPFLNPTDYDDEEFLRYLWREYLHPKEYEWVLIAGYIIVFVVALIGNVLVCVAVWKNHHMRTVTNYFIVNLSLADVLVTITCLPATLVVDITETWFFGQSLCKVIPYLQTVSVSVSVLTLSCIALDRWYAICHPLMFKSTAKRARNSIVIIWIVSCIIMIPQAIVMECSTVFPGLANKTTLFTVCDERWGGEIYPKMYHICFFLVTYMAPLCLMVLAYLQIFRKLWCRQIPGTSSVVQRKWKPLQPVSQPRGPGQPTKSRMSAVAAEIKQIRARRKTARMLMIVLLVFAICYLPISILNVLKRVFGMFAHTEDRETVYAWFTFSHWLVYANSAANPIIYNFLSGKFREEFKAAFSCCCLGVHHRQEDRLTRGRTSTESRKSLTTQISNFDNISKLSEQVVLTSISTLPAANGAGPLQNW
Test: Assay B: In vitro testing of OX2R potency: OX2R IP1 (HTRF, CHO-K1/hOX2 cells, Orexin A as agonist)
Format: cell-based
Details: Orexin A 0.5 nM
Excerpt: Activation of the orexin receptors expressed in cell lines results in an increase in intracellular IP3 concentration. IP1, a downstream metabolite of IP3, accumulates in cells following receptor activation and is stable in the presence of LiCl. Using Homogeneous Time-Resolved Fluorescence technology with Lumi4-Tb cryptate (commercially available from Cisbio Bioassay.) and a suitable fluorescence plate reader. […] Chem. Genomics 2009, 3, 22-32. This technique is used to characterize pharmacological modification of the orexin receptors.
B. In Vitro Testing of OX2R Potency: OX2R IP1
IP1 measurements are performed in CHO-K1 cells stably expressing the full-length human orexin 2 receptor and the aequorin photoprotein. Cells are cultivated in Ham's nutrient mixture F12 medium with 10% fetal calf serum, in a 37° C., 95% humidity and 5% CO2 incubator. The CHO-K1/hOX2 cell mass is expanded to larger cell numbers. The cells are obtained as frozen cells in cryo-vials and stored until use at −150° C. The viability of the cells after thawing is >90%. In preparation for the assay, 24 hours before the assay, the cells are thawed at 37° C. and immediately diluted with cell culture medium. After centrifugation, the cell pellet is resuspended in medium and then distributed into the assay plates with a density of 5000 cells/25 μL per well. The plates are incubated for one hour at room temperature to reduce edge effects before they are incubated for 24 hours at 37° C./5% CO2. Compounds are prepared by a 8-point serial dilution in DMSO and a final dilution step into assay buffer (HBSS with 20 mM HEPES, 0.1% BSA and 50 mM LiCl, pH 7.4) to ensure a final DMSO concentration of 1% in the assay.
On the day of the assay, cells in the plate are washed twice with 60 μL assay buffer (20 μL buffer remained in the wells after washing), followed by adding 5 μL per well of compounds diluted in assay buffer. After 15 minutes of incubation at room temperature 5 μL per well of Orexin A peptide (final concentration: 0.5 nM) dissolved in assay buffer is added to the assay plate. The assay plate is incubated for 60 minutes at 37° C. Then 5 μL per well of Anti-IP1-Cryptate Tb solution and 5 μL per well of IP1-d2 dilution are added to all well of the plate and the plate is incubated for a further 60 minutes light protected at room temperature. The emission at 615 nm and 665 nm (Excitation wavelength: 320 nm) are measured using an EnVision reader (PerkinElmer). The ratio between the emission at 665 nm and 615 is calculated by the reader.
8-point four parametric non-linear curve fitting and determination of IC50 values and Hill slopes is performed using a regular analysis software e.g. AssayExplorer (Accelrys). In order to establish an agonist concentration independent parameter, Kb values are calculated using the following equation: IC50/((2+(A/EC50)n)^1/n−1) (with A=concentration agonist, EC50=EC50 agonist, n=Hill slope agonist) (see P. Leff, I. G. Dougall, Trends Pharmacol. Sci. 1993, 14(4), 110-112).
Kb values from Assay A (OX1R) and Assay B (OX2R) can then provide a selectivity ratio which is independent of the agonist (Orexin A) concentration.

Row | Structure (SMILES) | Kb [nM]
31 | CCN(C(=O)c1cccc(C)c1-c1nnc(C)o1)[C@@H](C)COc1ccc(Cl)cn1 [Example 39] | 82
32 | CCN(C(=O)c1ccc(C#N)cc1-n1nccn1)[C@@H](C)COc1ccc(C(F)(F)F)cn1 [Example 103] | 1170
33 | CCN(C(=O)c1cccc(F)c1-n1nccn1)[C@@H](C)COc1ccc(Cl)cn1 [Example 114] | 54
34 | CCN(C(=O)c1cc(F)ccc1-n1cccn1)[C@@H](C)COc1ncc(C(F)(F)F)cc1F [Example 124] | 1060
35 | CCN(C(=O)c1cccc(F)c1-c1nnc(C)o1)[C@@H](C)COc1ccc(Cl)cn1 [Example 36] | 542
36 | CCN(C(=O)c1cc(F)cc(F)c1-n1nccn1)[C@@H](C)COc1ccc(OC(F)(F)F)cn1 [Example 126] | 41
37 | CCN(C(=O)c1cc(C#N)ccc1-n1nccn1)[C@@H](C)COc1ccc(C(F)(F)F)cn1 [Example 95] | 37
38 | CCN(C(=O)c1cc(F)cc(F)c1-n1nccn1)[C@@H](C)COc1ccc(Cl)cn1 [Example 32] | 117
39 | CCN(C(=O)c1cc(F)cc(F)c1-n1nccn1)[C@@H](C)COc1ncc(C(F)(F)F)cc1F [Example 54] | 274

System: not listed separately
Test: Assay C: Metabolic stability in human liver microsomes (Human MST)
Format: in vitro ADME
Details: pooled human liver microsomes, pH 7.6; human liver microsomes 1 mg/mL, compound 1 μM, 37° C., NADPH; read-out: Human MST t1/2
Procedure: C. Assessment of Metabolic Stability in Human Liver Microsomes (Human MST)
The metabolic stability of the compounds according to the invention may be investigated as follows:
The metabolic degradation of the test compound is assayed at 37° C. with pooled human liver microsomes. The final incubation volume of 100 μL per time point contains TRIS buffer pH 7.6 at room temperature (0.1 M), MgCl2 (5 mM), microsomal protein (1 mg/mL) and the test compound at a final concentration of 1 μM. Following a short pre-incubation period at 37° C., the reactions are initiated by addition of beta-nicotinamide adenine dinucleotide phosphate, reduced form (NADPH, 1 mM), and terminated by transferring an aliquot into solvent after different time points. After centrifugation (10000 g, 5 min), an aliquot of the supernatant is assayed by LC-MS/MS for the amount of parent compound. The half-life (t1/2) is determined by the slope of the semi-logarithmic plot of the concentration-time profile.

Row | Structure (SMILES) | half-life at 1 μM [h]
40 | CCN(C(=O)c1cccc(C)c1-c1nnc(C)o1)[C@@H](C)COc1ccc(Cl)cn1 [Example 39] | 0.383
41 | CCN(C(=O)c1ccc(C#N)cc1-n1nccn1)[C@@H](C)COc1ccc(C(F)(F)F)cn1 [Example 103] | 0.967
42 | CCN(C(=O)c1cccc(F)c1-n1nccn1)[C@@H](C)COc1ccc(Cl)cn1 [Example 114] | 1.83
43 | CCN(C(=O)c1cc(F)ccc1-n1cccn1)[C@@H](C)COc1ncc(C(F)(F)F)cc1F [Example 124] | 0.167
44 | CCN(C(=O)c1cccc(F)c1-c1nnc(C)o1)[C@@H](C)COc1ccc(Cl)cn1 [Example 36] | 1.2
45 | CCN(C(=O)c1cc(F)cc(F)c1-n1nccn1)[C@@H](C)COc1ccc(OC(F)(F)F)cn1 [Example 126] | 1.03
46 | CCN(C(=O)c1cc(C#N)ccc1-n1nccn1)[C@@H](C)COc1ccc(C(F)(F)F)cn1 [Example 95] | > 2.17
47 | CCN(C(=O)c1cc(F)cc(F)c1-n1nccn1)[C@@H](C)COc1ccc(Cl)cn1 [Example 32] | 0.767
48 | CCN(C(=O)c1cc(F)cc(F)c1-n1nccn1)[C@@H](C)COc1ncc(C(F)(F)F)cc1F [Example 54] | 1.45
